Earlier results, collected in patent US5196437A, “Method for treating hepatic diseases and regenerating liver tissue using FK 506 and related compounds” (Fujisawa Pharmaceutical Company, Ltd., priority 1990, dated 1993).

Legend:
liver = settings: literature (Starzl et al); cited from earlier work
liver tissue = settings: literature; cited from earlier work

For insulin, the hepatotrophic properties (liver) is listed as “exhibit hepatotrophic effects similar to those of the present compounds”.

In the case of `Cn1cnc([N+](=O)[O-])c1Sc1ncnc2nc[nH]c12` [Azathioprine], the “regeneration of liver tissue after partial hepatectomy” value (liver tissue) is given as “depress the regeneration of liver tissue”.

In the case of glucagon, the hepatotrophic properties (liver) is listed as “does not have the hepatotrophic properties” and the “metabolic effect on the liver” value (liver) is listed as “powerful metabolic effect on the liver”.
